From US20240025862A1, “SUBSTITUTED N-PHENYLURACILS AND SALTS THEREOF, AND USE THEREOF AS HERBICIDAL ACTIVE SUBSTANCES” (Bayer Aktiengesellschaft, priority 2020, published 2024)

Legend:
Format in all cases: in vivo
[1] = test system: Zea mays (ZEAMX); assay: Post-emergence crop plant compatibility, greenhouse pot test; details: 1.25 g/ha, vs untreated controls
Procedure, shortened: (§1)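 Greenhouse pot test; post-emergence foliar spray at one-leaf stage, WP or EC in water + 0.5% additive, 600 l/ha. Visual rating after ~3 wk, % relative to untreated (0–100%).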

[2] = test system: Triticum aestivum (TRZAS); assay: as above; details: vs untreated controls
Procedure, shortened: as §1

[3] = test system: Oryza sativa (ORYSA); assay: Post-emergence crop plant compatibility, greenhouse pot test (also comparative test C); details: for Post-emergence action against ORYSA (crop plant compatibility): vs untreated controls
Procedure, shortened: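 Visual damage versus untreated plants (0% = like control, 100% = plants died) was scored about 3 weeks after a post-emergence spray in greenhouse pots. Treatment: one-leaf stage, WP or EC in water at 600 l/ha with 0.5% additive; a/b/c mark different dosages on the same crop.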

[4] = test system: Setaria viridis (SETVI); assay: Post-emergence herbicidal action, greenhouse pot test (also comparative test C); details: for Post-emergence action against SETVI: 20 g/ha
Procedure, shortened: (§2)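 Visual rating against untreated controls, about 3 weeks after spraying, from 0% (like control) to 100% (plants dead). Weeds were treated at the one-leaf stage, 2–3 weeks after sowing in sandy loam, with aqueous WP/EC spray containing 0.5% additive at 600 l/ha. Doses were ≤20 g/ha, or ≤5 g/ha for comparative test C.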

[5] = test system: Alopecurus myosuroides (ALOMY); assay: as above; details: rated visually after about 3 weeks vs untreated controls, 100% = plants have died
Procedure, shortened: as §2

[6] = test system: Echinochloa crus-galli (ECHCG); assay: as above; details: for Post-emergence action at 1.25 g/ha against ECHCG in %: rated visually after about 3 weeks vs untreated controls, 100% = plants have died
Procedure, shortened: as §2

[7] = test system: Matricaria inodora (MATIN); assay: as above
Procedure, shortened: as §2

[8] = test system: Veronica persica (VERPE); assay: Post-emergence herbicidal action, greenhouse pot test
Procedure, shortened: (§3)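 Activity was scored by eye about 3 weeks after treatment against untreated plants, where 100% means dead plants and 0% means no difference. Plants at the one-leaf stage received a foliar spray of WP or EC formulations in water plus 0.5% additive (600 l/ha, up to 20 g/ha). Plants were grown in sandy loam pots in a greenhouse for 2–3 weeks before spraying.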

[9] = test system: Pharbitis purpurea (PHBPU); assay: as above
Procedure, shortened: as §3

[10] = test system: Polygonum convolvulus (POLCO); assay: as above
Procedure, shortened: as §3

[11] = test system: Avena fatua (AVEFA); assay: as above; details: 20 g/ha, rated visually after about 3 weeks vs untreated controls, 100% = plants have died
Procedure, shortened: as §3

[12] = test system: Lolium rigidum (LOLRI); assay: as above; details: dosage 20 g/ha
Procedure, shortened: as §3

[13] = test system: Abutilon theophrasti (ABUTH); assay: as above; details: rated visually after about 3 weeks vs untreated controls, 100% = plants have died
Procedure, shortened: as §3

[14] = test system: Amaranthus retroflexus (AMARE); assay: as above; details: rated visually after about 3 weeks vs untreated controls, 100% = plants have died
Procedure, shortened: as §3

[15] = test system: Viola tricolor (VIOTR); assay: as above
Procedure, shortened: as §3

[16] = test system: Glycine max (GLXMA); assay: Post-emergence crop plant compatibility, greenhouse pot test; details: 1.25 g/ha
Procedure, shortened: as §1

| Structure (SMILES) | Post-emergence action against ZEAMX (crop plant compatibility) [1] [%] | Post-emergence action against TRZAS (crop plant compatibility) ([2]; 1.25 g/ha) [%] | Post-emergence action against ORYSA (crop plant compatibility) ([3]; 1.25 g/ha) [%] | Post-emergence action against SETVI [4] [%] | Post-emergence action against SETVI in % ([4]; dosage 1.25 g/ha) [%] | Post-emergence action against SETVI in % ([4]; dosage 5 g/ha) [%] | Post-emergence action at 20 g/ha against ALOMY in % [5] [%] | Post-emergence action against ECHCG in % ([6]; dosage 5 g/ha) [%] | Post-emergence action against ECHCG in % ([6]; dosage 20 g/ha) [%] | Post-emergence action against MATIN in % ([7]; dosage 5 g/ha) [%] | Post-emergence action against MATIN in % ([7]; dosage 20 g/ha) [%] | Post-emergence action against VERPE ([8]; 1.25 g/ha) [%] | Post-emergence action against VERPE ([8]; 5 g/ha) [%] | Post-emergence action against VERPE ([8]; 20 g/ha) [%] | Post-emergence action against PHBPU in % ([9]; dosage 1.25 g/ha) [%] | Post-emergence action against PHBPU in % ([9]; dosage 5 g/ha) [%] | Post-emergence action against PHBPU in % ([9]; dosage 20 g/ha) [%] | Post-emergence action against POLCO in % ([10]; dosage 5 g/ha) [%] | Post-emergence action against POLCO in % ([10]; dosage 20 g/ha) [%] | Post-emergence action against LOLRI in % [12] [%] | further results |
| --- | --- | --- | --- | --- | --- | --- | --- | --- | --- | --- | --- | --- | --- | --- | --- | --- | --- | --- | --- | --- | --- |
| Cn1c(C(F)(F)F)cc(=O)n(-c2cc(Oc3ccccc3OCC(=O)OCc3ccccn3)c(Br)cc2F)c1=O [I.8-276] | 20 | 20 | 20 | 100 | 100 | 100 | 100 | 100 | 100 | 80 | 100 | 100 | 100 | 100 | 100 | 100 | 100 | 100 | 100 | 100 | Post-emergence action against TRZAS (crop plant compatibility) ([2]; 5 g/ha): 20%; Post-emergence action at 5 g/ha against ALOMY in % [5]: 80%; Post-emergence action against MATIN in % ([7]; dosage 1.25 g/ha): 80%; Post-emergence action at 20 g/ha against AVEFA in % [11]: 80%; Post-emergence action at 1.25 g/ha against ABUTH in % [13]: 100%; Post-emergence action at 5 g/ha against ABUTH in % [13]: 100%; Post-emergence action at 20 g/ha against ABUTH in % [13]: 100%; Post-emergence action at 1.25 g/ha against AMARE in % [14]: 100%; Post-emergence action at 5 g/ha against AMARE in % [14]: 100%; Post-emergence action at 20 g/ha against AMARE in % [14]: 100%; Post-emergence action against VIOTR ([15]; 1.25 g/ha): 100%; Post-emergence action against VIOTR ([15]; 5 g/ha): 100%; Post-emergence action against VIOTR ([15]; 20 g/ha): 100% |
| Cn1c(C(F)(F)F)cc(=O)n(-c2cc(Oc3ccccc3OCC(=O)OCC3CCOC3)c(Cl)cc2F)c1=O (stereo not drawn) [I.7-72] | 20 | 10 | 0 | 100 | 100 | 100 | 100 | 100 | 100 | 100 | 100 | 90 | 100 | 100 | 100 | 100 | 100 | 100 | 100 | 80 | Post-emergence action at 1.25 g/ha against ECHCG in % [6]: 80%; Post-emergence action against POLCO in % ([10]; dosage 1.25 g/ha): 80%; Post-emergence action at 20 g/ha against AVEFA in % [11]: 100%; Post-emergence action at 1.25 g/ha against ABUTH in % [13]: 100%; Post-emergence action at 5 g/ha against ABUTH in % [13]: 100%; Post-emergence action at 20 g/ha against ABUTH in % [13]: 100%; Post-emergence action at 1.25 g/ha against AMARE in % [14]: 100%; Post-emergence action at 5 g/ha against AMARE in % [14]: 100%; Post-emergence action at 20 g/ha against AMARE in % [14]: 100%; Post-emergence action against VIOTR ([15]; 1.25 g/ha): 100%; Post-emergence action against VIOTR ([15]; 5 g/ha): 100%; Post-emergence action against VIOTR ([15]; 20 g/ha): 100% |
| CCOCCOC(=O)COc1ccccc1Oc1cc(-n2c(=O)cc(C(F)(F)F)n(C)c2=O)c(F)cc1[N+](=O)[O-] [I.6-2] | 20 | 20 | 0 | 100 | 100 | 100 | 90 | 90 | 100 | 90 | 100 | 100 | 100 | 100 | 100 | 100 | 100 | 100 | 100 | 90 | Post-emergence action against GLXMA in % [16]: 20%; Post-emergence action against TRZAS (crop plant compatibility) ([2]; 5 g/ha): 20%; Post-emergence action against ORYSA (crop plant compatibility) ([3]; 5 g/ha): 0%; Post-emergence action against ORYSA in % ([3]; 20 g/ha, crop plant compatibility): 20%; Post-emergence action at 1.25 g/ha against ABUTH in % [13]: 100%; Post-emergence action at 5 g/ha against ABUTH in % [13]: 100%; Post-emergence action at 20 g/ha against ABUTH in % [13]: 100%; Post-emergence action at 1.25 g/ha against AMARE in % [14]: 100%; Post-emergence action at 5 g/ha against AMARE in % [14]: 100%; Post-emergence action at 20 g/ha against AMARE in % [14]: 100%; Post-emergence action against VIOTR ([15]; 1.25 g/ha): 100%; Post-emergence action against VIOTR ([15]; 5 g/ha): 100%; Post-emergence action against VIOTR ([15]; 20 g/ha): 100% |
| Cn1c(C(F)(F)F)cc(=O)n(-c2cc(Oc3ccccc3OCC(=O)OCCC#N)c(Cl)cc2F)c1=O [I.7-179] | 0 | 0 | 0 | 100 | 100 | 100 | 100 | 100 | 100 | 100 | 100 | 100 | 100 | 100 | 100 | 100 | 100 | 100 | 100 | 100 | Post-emergence action against TRZAS (crop plant compatibility) ([2]; 5 g/ha): 0%; Post-emergence action against MATIN in % ([7]; dosage 1.25 g/ha): 80%; Post-emergence action at 20 g/ha against AVEFA in % [11]: 80%; Post-emergence action at 1.25 g/ha against ABUTH in % [13]: 100%; Post-emergence action at 5 g/ha against ABUTH in % [13]: 100%; Post-emergence action at 20 g/ha against ABUTH in % [13]: 100%; Post-emergence action at 1.25 g/ha against AMARE in % [14]: 100%; Post-emergence action at 5 g/ha against AMARE in % [14]: 100%; Post-emergence action at 20 g/ha against AMARE in % [14]: 100%; Post-emergence action against VIOTR ([15]; 1.25 g/ha): 100%; Post-emergence action against VIOTR ([15]; 5 g/ha): 100%; Post-emergence action against VIOTR ([15]; 20 g/ha): 100% |
| COCCOC(=O)COc1ccccc1Oc1cc(-n2c(=O)cc(C(F)(F)F)n(C)c2=O)c(F)cc1Br [I.8-1] | 20 | 20 | 0 | 100 | 100 | 100 | 100 | 100 | 100 | 100 | 100 | 100 | 100 | 100 | 100 | 100 | 100 | 100 | 100 | 80 | Post-emergence action against ORYSA (crop plant compatibility) ([3]; 5 g/ha): 20%; Post-emergence action at 5 g/ha against ALOMY in % [5]: 100%; Post-emergence action at 1.25 g/ha against ECHCG in % [6]: 80%; Post-emergence action against MATIN in % ([7]; dosage 1.25 g/ha): 100%; Post-emergence action against POLCO in % ([10]; dosage 1.25 g/ha): 90%; Post-emergence action at 20 g/ha against AVEFA in % [11]: 80%; Post-emergence action at 1.25 g/ha against ABUTH in % [13]: 100%; Post-emergence action at 5 g/ha against ABUTH in % [13]: 100%; Post-emergence action at 20 g/ha against ABUTH in % [13]: 100%; Post-emergence action at 1.25 g/ha against AMARE in % [14]: 100%; Post-emergence action at 5 g/ha against AMARE in % [14]: 100%; Post-emergence action at 20 g/ha against AMARE in % [14]: 100%; Post-emergence action against VIOTR ([15]; 1.25 g/ha): 100%; Post-emergence action against VIOTR ([15]; 5 g/ha): 100%; Post-emergence action against VIOTR ([15]; 20 g/ha): 100% |
